Results reported in US20200288710A1, “SUBSTITUTED SULPHONAMIDES FOR CONTROLLING ANIMAL PESTS” (BAYER CROPSCIENCE AKTIENGESELLSCHAFT, priority 2016, published 2020).

Key:
Assay type in all cases: in vivo
Phaedon cochleariae = Phaedon cochleariae spray test; settings: foliar, 168 h, Chinese cabbage leaf discs, larvae, after 7 days, read-out: efficacy
Procedure: Phaedon cochleariae—Spray Test
To produce a suitable preparation of active compound, 1 part by weight of active compound is dissolved using the specified parts by weight of solvent and made up with water containing an emulsifier concentration of 1000 ppm until the desired concentration is attained. To produce further test concentrations, the formulation is diluted with emulsifier-containing water.
After 7 days, the efficacy in % is determined. 100% means that all the beetle larvae have been killed; 0% means that no beetle larvae have been killed.

Myzus persicae [1] = assay: Myzus persicae spray test (Chinese cabbage leaf discs); settings: foliar, 120 h, 500 g/ha, after 5-6 days, read-out: efficacy
In short: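 Chinese cabbage leaf discs infested with all stages of green peach aphid were sprayed with compound formulated in acetone/DMF and emulsifier-containing water. Efficacy in % was scored after 5-6 days, with 100% meaning all aphids killed and 0% none killed.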

Myzus persicae [2] = assay: Myzus persicae oral test; settings: 120 h, 20 ppm, oral uptake, after 5 days, read-out: efficacy
In short: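 Compound dissolved in acetone, diluted in water, then mixed 50:150 μl with IPL41 insect medium (33%+15% sugar). Mixed-population green peach aphids feed through a parafilm seal on the solution; mortality scored as % efficacy after 5 days (100% = all killed).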

Meloidogyne incognita = Meloidogyne incognita test; settings: 336 h, lettuce, after 14 days, read-out: nematicidal efficacy (formation of galls)
In short: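 Active compound in acetone, diluted with water, added to sand-filled vessels with M. incognita eggs/larvae and lettuce seeds. After 14 days, efficacy scored by root gall formation: 100% = no galls, 0% = galls equal to untreated control.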

Row | Structure (SMILES) | pest or weed control at 500 g/ha (Phaedon cochleariae) [%] | pest or weed control at 500 g/ha (Myzus persicae [1]) [%] | pest or weed control at 20 ppm (Myzus persicae [2]) [%] | pest or weed control at 20 ppm (Meloidogyne incognita) [%]
1 | CCc1ccccc1S(=O)(=O)NC(=O)c1cn(C)c(-c2nccc3ccccc23)n1 [Example 469] | 100 | 90 | 100 | –
2 | Cc1ccccc1S(=O)(=O)NC(=O)c1cn(C)c(-c2cccc3ccccc23)n1 [Example 216] | 100 | – | 100 | 90
3 | Cn1c(-c2ccccc2Cl)nc(C(=O)NS(=O)(=O)c2ccccc2Cl)c1Cl [Example 221] | 100 | – | 100 | 100
4 | COc1ccc(C)c(S(=O)(=O)NC(=O)c2cn(C)c(-c3cccc(Cl)c3Cl)n2)c1 [Example 460] | 83 | 100 | – | –
5 | COc1ccc(Cl)c(S(=O)(=O)NC(=O)c2nc(-c3ccccc3Cl)n(C)c2Br)c1 [Example 222] | 100 | – | – | 100
6 | COc1cc(S(=O)(=O)NC(=O)c2cn(C)c(-c3ncccc3F)n2)c(C)cc1Br [Example 610] | 100 | 100 | 100 | –
7 | Cc1c(-c2c(F)cccc2F)nc(C(=O)NS(=O)(=O)c2ccccc2Cl)n1C [Example 308] | 100 | – | – | 90
8 | Cn1cc(C(=O)NS(=O)(=O)c2ccccc2Cl)nc1-c1nccc2ccccc12 [Example 464] | 100 | 100 | 90 | –
9 | Cn1cc(C(=O)NS(=O)(=O)c2ccccc2Cl)nc1-c1cccc2ccccc12 [Example 479] | 100 | – | – | 90
10 | Cc1cc(F)c(F)cc1S(=O)(=O)NC(=O)c1cn(C)c(-c2ccccc2Cl)n1 [Example 290] | 100 | 100 | 100 | –
11 | O=C(NS(=O)(=O)c1ccc(Cl)cc1)c1nc(-c2ccccc2Cl)n(-c2ccccc2)c1Cl [Example 105] | 100 | – | – | –
12 | COc1ccc(OC)c(S(=O)(=O)NC(=O)c2nc(-c3c(F)cccc3F)n(C)c2C)c1 [Example 413] | 83 | 90 | – | –
13 | Cc1c(-c2c(F)cccc2F)nc(C(=O)NS(=O)(=O)c2ccccc2Br)n1C [Example 309] | 100 | – | – | 100
14 | Cc1ccccc1S(=O)(=O)NC(=O)c1nc(-c2c(F)cccc2F)n(C)c1C [Example 196] | 100 | – | 100 | –
15 | COc1cc(S(=O)(=O)NC(=O)c2cn(C)c(-c3ncccc3Cl)n2)c(C)cc1Br [Example 611] | 100 | 90 | 100 | –
16 | Cn1cc(C(=O)NS(=O)(=O)c2c(Cl)cccc2C(F)(F)F)nc1-c1cccc(Cl)c1Cl [Example 467] | 100 | 100 | 100 | –
17 | COc1ccc(Br)c(S(=O)(=O)NC(=O)c2cn(C)c(-c3c(F)cccc3F)n2)c1 [Example 143] | 100 | 90 | 90 | –
18 | Cn1cc(C(=O)NS(=O)(=O)c2c(F)cccc2Cl)nc1-c1c(F)cccc1F [Example 431] | – | 90 | 100 | 90
19 | Cc1c(C(=O)NS(=O)(=O)c2ccccc2)nc(-c2ccccc2Cl)n1C [Example 39] | – | 90 | 90 | 90
20 | Cn1cc(C(=O)NS(=O)(=O)c2ccccc2)nc1-c1c(Cl)cccc1Cl [Example 44] | – | 90 | 90 | 100
21 | Cn1cc(C(=O)NS(=O)(=O)c2ccccc2Cl)nc1-c1ccccc1Cl [Example 225] | – | 100 | 100 | 80
22 | Cn1cc(C(=O)NS(=O)(=O)c2ccccc2Cl)nc1-c1cccc(F)c1F [Example 512] | – | 90 | 100 | 90
23 | Cc1cc(C(=O)NS(=O)(=O)c2ccccc2Br)nn1-c1c(F)cccc1F [Example 257] | – | 90 | 100 | 90
